Experimental data taken from patent publication US10568884B2, “Compounds and compositions as protein kinase inhibitors” (Array BioPharma, Inc., priority 2009, dated 2020).
Like-named read-outs stand apart in the source and are kept apart here.

Columns and labels:
[1] = test system: A375 melanoma cell line (B-Raf V600E); assay: A375 Cellular Proliferation Assay (A375 CP); type: cell-based; conditions: Homo sapiens
Protocol: A375-luc cells engineered to express luciferase are plated to 384-well white clear bottom plates as 1,500 cells/50 μl/well in DMEM containing 10% FBS. Compounds of the invention dissolved in 100% DMSO at appropriate concentrations are transferred to the cells by a robotic Pin Tool (100 nl). The cells are incubated for 2 days at […], then 25 μl of BrightGlo™ is added to each well and the plates are read by luminescence.

[2] = Liver Microsomal Clearance Assay (mouse); type: in vitro ADME; conditions: extraction ratio, mouse liver microsomes, 1 μM compound
Protocol: (§1) The in vitro microsomal clearance assay is designed to assess potential risks associated with hepatic metabolic stability of compounds. The test compound (1 μM) was incubated with liver microsomes (0.5 mg/mL) from different species (mouse, rat, monkey, dog and human) and NADPH (1 mM) in 100 mM potassium phosphate buffer at 37° C. At specific reaction time points (0, 5, 10 and 30 minutes), reaction aliquots were removed and reactions were terminated by addition of ice cold acetonitrile containing mass spectrometry internal standard. The samples were centrifuged and the supernatants were analyzed by LC-MS/MS. In vitro metabolic half-life (t1/2, min) and intrinsic clearance (CLint, μL/min/mg) are based on the rate and extent of metabolism of the test compound as determined by the disappearance of the parent compound from the reaction mixture. These values may be scaled to predict hepatic metabolic clearance rate (CLh, mL/min/kg) and extraction ratio (ER, expressed as a ratio of the predicted hepatic metabolic clearance to hepatic blood flow in that species). In general, compounds with high predictedCLint or ER in vitro are considered to be at high risk for exposure-limiting metabolism in vivo.

[3] = Liver Microsomal Clearance Assay (human); type: in vitro ADME; conditions: extraction ratio, human liver microsomes, 1 μM compound
Protocol: as §1

SW620 cells = assay: SW620 Cell Viability Assay (Cell Titer Glo); type: cell-based; conditions: 10 to 0.002 μM, no MEK inhibitor
Protocol: The present invention also includes combinations of the BRaf inhibitors disclosed in this invention with other agents. In particular, the present invention provides for combinations with MEK1/2 inhibitors. FIG. 1 illustrates that the addition of a MEK small molecule inhibitor can reverse the induced ERK signaling, cell growth and transformation caused by a Raf small molecule inhibitor.
SW620 cells were seeded in 1640 RPMI+10% FBS at a density of 1500 cells per 96-well in black walled, clear bottom tissue culture treated plates. Test compounds were serially diluted in DMSO then added to the cells (final DMSO concentration of 0.1%) and incubated at 37° C. and 5% CO2 for 4 days. To measure cell viability, cell plates were brought to room temperature, culture media was removed, and 200 μl of Cell Titer-Glo reagent (Promega, kit components mixed as per the manufacturer's protocol then diluted 1:2 with growth media) was added to each well. Plates were shaken for 5 minutes, then incubated at room temperature for 5 minutes, and the luminescence was measured (Trilux, Perkin Elmer).

p38α MAP Kinase = assay: A549 p38α MAP Kinase Bright-Glo Reporter Gene Assay; type: cell-based; conditions: Homo sapiens, IL-1 beta stimulated, IL-8 promoter luciferase reporter, read-out: A549 p38 RGA IC50
Protocol: A549 cells were stably-transfected with the IL-8 promoter driven reporter, pGL3-IL8-Luc. The cells were plated at 4×10^5/ml into 384-well solid white plates (40 ul/well, 5% CD-FBS, 1×P/S, DMEM) and were incubated overnight (18-20 hours) at 37° C. Test compounds were serially diluted in DMSO, then 50 nl of test solution was added to the incubation (final DMSO concentration of 0.1%). After incubating with test compound for 30 min, cells were stimulated with 1 ng/ml IL-1 beta (10 ul of 5 ng/ml solution per well). Bright-Glo (25 ul/well) was added to measure luciferase expression after 7-8 hours of stimulation.

[4] = A-375, 48 h, A375-luc cells, 2 days, read-out: A375 CP IC50
[5] = A-375, as repeated in p38 table, read-out: A375 CP IC50

Compound	IC50 [1, 4] [nM]	ER Mouse [2]	ER Human [3]	IC50 [1, 5] [nM]	IC50 ([1]; A-375, read-out: A375 IC50) [nM]	IC50 (p38α MAP Kinase) [nM]	effect on cellular proliferation (negative inhibition in FIG. 1) (SW620 cells)
CNc1nccc(-c2cn(C(C)C)nc2-c2cc(Cl)cc(NS(C)(=O)=O)c2F)n1 [Compound 29, N-(5-chloro-2-fluoro-3-{4-[2-(methylamino)pyrimidin-4-yl]-1-(propan-2-yl)-1H-pyrazol-3-yl}phenyl)methanesulfonamide]	76			76	76	17000	
COC(=O)NC[C@H](C)Nc1nccc(-c2cn(C(C)C)nc2-c2cc(Cl)cc(NS(C)(=O)=O)c2F)n1 [Compound 32, Methyl N-[(2S)-2-({4-[3-(5-chloro-2-fluoro-3-methanesulfonamidophenyl)-1-(propan-2-yl)-1H-pyrazol-4-yl]pyrimidin-2-yl}amino)propyl]carbamate]	31			31		690	

The remaining compounds from weak to strong by IC50 [1, 4], led by results:

IC50 [1, 4] [nM]	ER Mouse [2]	ER Human [3]	IC50 [1, 5] [nM]	IC50 ([1]; A-375, read-out: A375 IC50) [nM]	IC50 (p38α MAP Kinase) [nM]	Compound	effect on cellular proliferation (negative inhibition in FIG. 1) (SW620 cells)
33	0.40	<0.31				COC(=O)N[C@@H](C)CNc1nccc(-c2cn(C(C)C)nc2-c2cccc(NS(C)(=O)=O)c2F)n1 [Compound 4, methyl N-[(2S)-1-({4-[3-(2-fluoro-3-methanesulfonamidophenyl)-1-(propan-2-yl)-1H-pyrazol-4-yl]pyrimidin-2-yl}amino)propan-2-yl]carbamate]	
8	0.91	0.65				CCCS(=O)(=O)Nc1ccc(F)c(-c2nn(C(C)C)cc2-c2ccnc(NC[C@H](C)NC(=O)OC)n2)c1F [Compound 7, Methyl N-[(2S)-1-[(4-{3-[2,6-difluoro-3-(propane-1-sulfonamido)phenyl]-1-(propan-2-yl)-1H-pyrazol-4-yl}pyrimidin-2-yl)amino]propan-2-yl]carbamate]	
2	0.48	<0.21	2	2	2200	COC(=O)N[C@@H](C)CNc1nccc(-c2cn(C(C)C)nc2-c2cc(Cl)cc(NS(C)(=O)=O)c2F)n1 [Compound 9, Methyl N-[(2S)-1-({4-[3-(5-chloro-2-fluoro-3-methanesulfonamidophenyl)-1-(propan-2-yl)-1H-pyrazol-4-yl]pyrimidin-2-yl}amino)propan-2-yl]carbamate]	induction in cellular proliferation
